The values below come from patent US5889053A, “Farnesyl transferase inhibitors, preparation thereof and pharmaceuticals compositions containing said inhibitors” (Rhone-Poulenc Rorer S.A., priority 1995, dated 1999).

For one test, the system named is farnesylation of the Ras protein in THAC cells (CCL 39 cells transfected with activated Ha-Ras). The test can be described thus: Activity against cells: inhibition of farnesylation of the Ras protein in THAC cells (Western blot). It is filed as cell-based. Particulars: CCL39, 24 h at 37° C. On the procedure:
The activity against cells can be determined in the following way:
The cell line is the THAC line (CCL 39 cells transfected with activated Ha-Ras) according to K. Seuwen et al., EMBO J., 7(1) 161-168 (1988). The cells are cultured in Petri dishes with a diameter of 6 cm containing a DMEM medium, 5% foetal calf serum and 1% G418.
After culturing for 24 hours, the culture medium is changed (with or without the serum) and the product to be studied is added in solution in dimethylformamide (DMF), in the presence or in the absence of DTT (final concentrations of 0.5% in DMF and 0.1 mM in DTT). After culturing for 24 hours at 37° C., the cells are lysed in 1 cm^3 of lysis buffer (20 mM Tris, HCl, 1% Triton X114, 5 mM MgCl2, 7 mM DTT, 150 mM NaCl, pH=7.4). The lysates are clarified by centrifuging at 4000 revolutions/minute for 10 minutes. […] The radioactivity of the bands corresponding to farnesylated Ras and to non-farnesylated Ras makes it possible to determine the percentage of inhibition of farnesylation of the Ras protein.
On the technique in general: In western blotting, separated proteins are transferred to a membrane and probed.
In general, inhibition refers to the change of the read-out against control, counted positive when it falls. High values mean a response far below the control, low ones a response near the control. `COC(=O)[C@H](CCSC)NC(=O)c1ccc(NC[C@@H](N)CS)c2ccccc12` [Example 2, methyl ester of N-[4-(2(R)-amino-3-mercaptopropylamino)naphthyl-1-carbonyl]-L-methionine] yielded an inhibition at 10 µM of 40%.

Another test deals with T1, human farnesyl transferase (Homo sapiens, UniProt P49354+P49356).
T1 construct: human farnesyl transferase purified from THP1 cell cultures; endogenous in cells; host or cells: THP1
The test can be described thus: Inhibition of farnesyl transferase and of farnesylation of the Ras protein ([3H]farnesyl transfer from [3H]FPP to p21 H-Ras). Particulars: p21 H-Ras substrate, 20 min at 37° C., 9 concentrations; read-out: Inhibitory activity IC50. In kind it is biochemical. On the procedure: Farnesyl transferase activity is determined by the quantity of [^3 H]farnesyl transferred from [^3 H]farnesyl pyrophosphate ([^3 H]FPP) to the p21 H-Ras protein. The standard reaction mixture is composed, for a final volume of 60 μl, of 50 mM Tris-HCl, 5 mM MgCl2, 5 mM dithiothreitol, 0.2% octyl β-D-glucopyranoside, 200 picomol p21 H-Ras, 4.5 picomol [^3 H]FPP (activity 61000 dpm/picomol).
Reaction is initiated by adding approximately 5 ng of human farnesyl transferase purified from THP1 cell cultures. After incubation for 20 minutes at 37° C. in a microtitration plate containing 96 1-cm^3 wells per plate (Titer Plate®, Beckman), the reaction is stopped by adding 0.4 cm^3 of 0.1% SDS in methanol at 0° C. The mixture is then treated with 0.4 cm^3 of 30% trichloroacetic acid (TCA) in methanol. The plates are left in ice for 1 hour. The precipitated contents are then retained on Filtermat®, Pharmacia) glass fibre membranes with the filtration unit (Combi Cell Harvester®, Skatron), and rinsed with 6% trichloroacetic acid in distilled water. The membranes are dried in a microwave oven, then impregnated with scintillation medium by melting of Meltilex® (Pharmacia) under hot air, and lastly counted in cpm in a β-Plate counter® (LKB). Each test is repeated 3 times.
The unit of activity is defined as 1 picomole of [^3 H]FPP transferred to p21 H-Ras in 20 minutes.
The percentage inhibition values are obtained by comparison of the tests with and without inhibitor after deduction of blanks, the IC50 values being measured on the basis of the inhibitions obtained with 9 different concentrations using Enzfitter® or Grafit® software.
One may read the IC50 as the concentration at which inhibition is half-maximal. On to `CSCC[C@H](NC(=O)c1ccc(NC[C@@H](N)CS)c2ccccc12)C(=O)O` [Example 1, N-[4-(2(R)-amino-3-mercaptopropylamino)naphthyl-1-carbonyl]-L-methionine], for which the half-maximal inhibitory concentration (IC50) was 23 nM.

On to `COC(=O)[C@H](CCSC)NC(=O)c1ccc(NC[C@@H](N)CS)c2ccccc12` [Example 2, methyl ester of N-[4-(2(R)-amino-3-mercaptopropylamino)naphthyl-1-carbonyl]-L-methionine], for which the half-maximal inhibitory concentration (IC50) is 100 nM.

As to `CSCC[C@H](NC(=O)c1cc(NC[C@@H](N)CS)cc2ccccc12)C(=O)O` [Example 4, N-[3-(2(R)-amino-3-mercaptopropylamino)naphthyl-1-carbonyl]-L-methionine], the IC50 stood at 31 nM.

Turning to `COC(=O)[C@H](CCSC)NC(=O)c1cc(NC[C@@H](N)CS)cc2ccccc12` [Example 5, methyl ester of N-[3-(2(R)-amino-3-mercaptopropylamino)naphthyl-1-carbonyl]-L-methionine], the IC50 worked out at 300 nM.

Take `CSCC[C@H](NC(=S)c1cc(NC[C@@H](N)CS)cc2ccccc12)C(=O)O` [Example 6, N-[3-(2(R)-amino-3-mercaptopropylamino)naphthyl-1-thiocarbonyl]-L-methionine]: the IC50 is 55 nM.
